Results from publication PMC10698726 (Molecular Pharmaceutics, 2023).
Like-named read-outs stand apart in the source and are kept apart here.

Experiments:
[1] = target: T1, OCT1 (Homo sapiens, UniProt O15245); assay: Inhibition of model substrate uptake in OCT1-overexpressing HEK293 cells; assay type: cell-based; design: expressed in transfected cells; host or cells: HEK293; conditions: for inhibition at 5 min, 20 μM / selectivity ratio at 5 min: human, OCT1-overexpressing HEK293 cells; for inhibition at 5 min, 20 μM: OCT1, 20 μM inhibitor; for IC50: 2 μM ASP+ or ethambutol as model substrate; for inhibition at 5 min, 20 μM / IC50: 5 min; for selectivity ratio at 5 min: pH 7.4, ratio of the IC50 values of both isomers, label = isomer named in the cell (as a rule the one with the higher IC50), read-out: Stereoselectivity (x-fold for the named isomer)
T1 sequence (O15245 1-554): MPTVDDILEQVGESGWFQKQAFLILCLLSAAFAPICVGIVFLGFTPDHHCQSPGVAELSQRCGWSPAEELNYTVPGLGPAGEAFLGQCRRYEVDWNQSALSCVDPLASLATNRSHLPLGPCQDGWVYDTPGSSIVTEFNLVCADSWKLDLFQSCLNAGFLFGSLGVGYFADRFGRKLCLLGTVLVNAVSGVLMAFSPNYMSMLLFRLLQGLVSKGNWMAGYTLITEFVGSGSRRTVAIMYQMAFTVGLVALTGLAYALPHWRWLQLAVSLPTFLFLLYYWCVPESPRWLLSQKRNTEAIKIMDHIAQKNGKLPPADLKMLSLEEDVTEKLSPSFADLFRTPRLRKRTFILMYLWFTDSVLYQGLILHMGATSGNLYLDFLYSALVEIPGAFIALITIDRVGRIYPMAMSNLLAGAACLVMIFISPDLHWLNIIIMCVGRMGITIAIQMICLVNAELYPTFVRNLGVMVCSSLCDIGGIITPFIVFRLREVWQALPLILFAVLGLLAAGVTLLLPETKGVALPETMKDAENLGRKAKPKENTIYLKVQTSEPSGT
Experimental: Koepsell and Gorbulev (University of Würzburg, Germany).
Fluorescence quantification was performed in technical duplicates.

[2] = target: T2, OCT2 (Homo sapiens, UniProt O15244); assay: Inhibition of model substrate uptake in OCT2-overexpressing HEK293 cells; conditions: for inhibition at 5 min, 20 μM / selectivity ratio at 5 min: human, OCT2-overexpressing HEK293 cells; for IC50: IC50, OCT2, Table S5, 2 μM ASP+ as model substrate; for selectivity ratio at 5 min: pH 7.4
T2 sequence (O15244 1-555): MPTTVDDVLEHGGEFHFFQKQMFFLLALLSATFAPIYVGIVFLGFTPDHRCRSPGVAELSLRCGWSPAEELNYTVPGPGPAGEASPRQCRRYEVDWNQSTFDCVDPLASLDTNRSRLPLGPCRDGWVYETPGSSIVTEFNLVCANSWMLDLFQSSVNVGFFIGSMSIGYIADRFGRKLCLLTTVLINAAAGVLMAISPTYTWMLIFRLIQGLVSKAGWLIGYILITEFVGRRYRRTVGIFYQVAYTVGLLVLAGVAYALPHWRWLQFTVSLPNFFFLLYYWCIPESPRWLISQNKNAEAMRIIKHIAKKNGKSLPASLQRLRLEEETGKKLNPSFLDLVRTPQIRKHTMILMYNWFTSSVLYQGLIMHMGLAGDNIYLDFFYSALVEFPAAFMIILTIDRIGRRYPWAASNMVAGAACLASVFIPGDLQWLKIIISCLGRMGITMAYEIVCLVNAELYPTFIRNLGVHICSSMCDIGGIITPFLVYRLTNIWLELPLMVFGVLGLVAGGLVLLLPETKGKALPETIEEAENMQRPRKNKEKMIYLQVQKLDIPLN

[3] = pH 7.4, probe (S,S)-ethambutol (2 μM), (S,S)-Ethambutol inhibition [%], 2 μM (S,S)-ethambutol
[4] = pH 7.4, probe ASP+ (2 μM), 2 μM ASP+, mean of three experiments, read-out: ASP+ inhibition [%]
[5] = pH 7.4, probe sumatriptan (2 μM), 2 μM sumatriptan, read-out: Sumatriptan inhibition [%]
[6] = pH 7.4, probe (S,S)-ethambutol (2 μM), (S,S)-Ethambutol inhibition [%], OCT2, 20 μM inhibitor, 2 μM (S,S)-ethambutol, 5 min
[7] = pH 7.4, probe ASP+ (2 μM), ASP+ inhibition [%], OCT2, 20 μM inhibitor, 2 μM ASP+, 5 min
[8] = pH 7.4, probe N-ethyllidocaine (2 μM), N-Ethyllidocaine inhibition [%], OCT2, 20 μM inhibitor, 2 μM N-ethyllidocaine, 5 min

| SMILES | inhibition at 5 min, 20 μM [1, 3] [%] | inhibition at 5 min, 20 μM [1, 4] [%] | inhibition at 5 min, 20 μM [1, 5] [%] | inhibition at 5 min, 20 μM [2, 6] [%] | inhibition at 5 min, 20 μM [2, 7] [%] | inhibition at 5 min, 20 μM [2, 8] [%] | IC50 ([1]; OCT1, Table S5, read-out: IC50) [µM] | selectivity ratio at 5 min ([1]; OCT1, Table S5) | IC50 ([2]; 5 min) [µM] | selectivity ratio at 5 min [2] | IC50 ([1]; IC50, OCT1, Table S5) [µM] | (S,S)-Ethambutol inhibition [%] ([2]; OCT2, 20 μM inhibitor, 2 μM (S,S)-ethambutol, 5 min) | N-Ethyllidocaine inhibition [%] ([2]; OCT2, 20 μM inhibitor, 2 μM N-ethyllidocaine, 5 min) |
| --- | --- | --- | --- | --- | --- | --- | --- | --- | --- | --- | --- | --- | --- |
| CN(C)CCc1c[nH]c2ccc(C[C@H]3COC(=O)N3)cc12 [(S)-Zolmitriptan] | 26.9 | 10 | 44.5 | 13.3 | 17.2 | 7.3 | – | – | – | – | – | – | – |
| CCCN[C@H]1CCc2nc(N)sc2C1 [(S)-Pramipexole] | 34.9 | 12.1 | 35.6 | 15.8 | 16.4 | 19.6 | 32.2 | 1.6 | 82.4 | 4 | – | – | – |
| CCN(CC)CC#CCOC(=O)[C@](O)(c1ccccc1)C1CCCCC1 [(R)-Oxybutynine] | 93.7 | 49.1 | 73 | – | 86.1 | – | – | 1.2 | 31.8 | 1.6 | 171 | 7.4 | 28.2 |
